Source: US20080200635A1, “POLYSILANE COMPOUND AND SYNTHESIS METHOD, ULTRAVIOLET-RAY CURABLE INK COMPOSITION, INKJET RECORDING METHOD AND APPARATUS, AND INK CONTAINER” (SEIKO EPSON CORPORATION, priority 2007, published 2008)

Columns and labels:
[1] = Viscosity of monomers at 25° C.; assay type: physicochemical; conditions: measured value at 25° C.
Description: The viscosities in the foregoing table are a measured value at 25° C.

[2] = primary irritation index; cited from earlier work

| Molecule | Viscosity [1] [mPa · s] | P.I.I. [2] |
| --- | --- | --- |
| C=CC(=O)OCC(C)OCC(C)OCC(C)OC(=O)C=C (centres unmarked) [Tripropylene glycol diacrylate] | 12 | 1.6 |
| C=C(C)C(=O)OCCCCCCOC(=O)C(=C)C [1,6-Hexanediol dimethacrylate] | 6 | 0.5 |
| C=C(C)C(=O)OCC(O)COC(=O)C(=C)C [2-Hydroxy-1,3-dimethacryloxypropane] | 37 | 0.6 |
| C=CC(=O)OCCCCCCCCCOC(=O)C=C [1,9-Nonanediol diacrylate] | 21 | 2.0 |
| C=CC(=O)OCCOc1ccccc1 [Phenoxyethyl acrylate] | 3.3 | 1.7 |
| C=C(C)C(=O)OCC1COC(C)(CC)O1 (centres unmarked) [(2-Methyl-2-ethyl-1,3-dioxolan-4-yl)methyl methacrylate] | 5.1 | 1.3 |
| C=C(C)C(=O)OCCCCOC(=O)C(=C)C [1,4-Butanediol dimethacrylate] | 7 | 2.0 |
| C=C(C)C(=O)OCCOC(=O)C(=C)C [Ethylene glycol dimethacrylate] | 3 | 0.6 |
| C=CC(=O)N1CCOCC1 [Acryloyl morpholine] | 12 |  |
| C=CC(=O)OCCOCCOC [Methoxy diethylene glycol monoacrylate] | 2 | 0.7 |

Continued, in another order:

| Viscosity [1] [mPa · s] | Molecule | P.I.I. [2] |
| --- | --- | --- |
| 5 | C=C(C)C(=O)OCCOCCOC(=O)C(=C)C [Diethylene glycol dimethacrylate] | 0.5 |
| 42 | C=C(C)C(=O)OCC(CC)(COC(=O)C(=C)C)COC(=O)C(=C)C [Trimethylolpropane trimethacrylate] | 0.8 |
| 58 | Polyethylene glycol #400 diacrylate | 0.4 |
| 14 | C=C(C)C(=O)OCCOCCOCCOCCOC(=O)C(=C)C [Tetraethylene glycol dimethacrylate] | 0.5 |
| 7 | C=C(C)C(=O)OCC(C)(C)COC(=O)C(=C)C [Neopentyl glycol dimethacrylate] | 0.0 |
| 55 | Trimethylolpropane modified triacrylate | 1.5 |
| 60 | Trimethylolpropane PO-modified triacrylate | 0.1 |
| 75 | Glycerin PO-modified triacrylate |  |
| 2.6 | C=CC(=O)O[C@@H]1C[C@H]2CC[C@]1(C)C2(C)C [Isobonyl acrylate] | 0.6 |
| 5.3 | C=CC(=O)OCC1COC(C)(CC(C)C)O1 (centres unmarked) [(2-Methyl-2-isobutyl-1,3-dioxolan-4-yl)methyl acrylate] | 1.0 |
